Results: patent US20240043404A1 (AbbVie Inc., priority 2009, published 2024)

The molecules below were run on RS4;11 cells (assay: RS4;11 cell viability assay (CellTiter Glo)). Settings: Homo sapiens, RS4-11, 48 h, 50,000 cells per well, 10% human serum, 48 hours; read-out: RS4; 11 EC50 Values.
Assay type: cell-based, human
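Further: acute lymphoblastic leukemia line RS4,11, EC50 derived from percentage of viable cells after treatment relative to untreated controls, cell killing taken as a measure of Bcl-2 inhibition.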
Procedure: The acute lymphoblastic leukemia (ALL) cell line RS4;11 was used as the primary human cell line to assess the cellular activity of Bcl-2 selective agents in vitro and their efficacy in vivo.
Cell cytotoxicity EC50 values were assessed using CellTiter Glo (Promega) according to the manufacturer's recommendations. The EC50 values were determined as a percentage of viable cells following treatment compared to the untreated control cells.

| SMILES | EC50 [nM] |
| --- | --- |
| CC1(C)CCC(CN2CCN(c3ccc(C(=O)NS(=O)(=O)c4ccc(N[C@H]5CC[C@H](N6CCOCC6)CC5)c([N+](=O)[O-])c4)c(Oc4ccc5[nH]ccc5c4)c3)CC2)=C(c2ccc(Cl)cc2)C1 [Example 19, Trans-4-(4-{[2-(4-chlorophenyl)-4,4-dimethylcyclohex-1-en-1-yl]methyl}piperazin-1-yl)-2-(1H-indol-5-yloxy)-N-({4-[(4-morpholin-4-ylcyclohexyl)amino]-3-nitrophenyl}sulfonyl)benzamide] | 465 |
| CC1(C)CCC(CN2CCN(c3ccc(C(=O)NS(=O)(=O)c4ccc(NCC5CN(C6COC6)CCO5)c([N+](=O)[O-])c4)c(Oc4cnc5[nH]ccc5c4)c3)CC2)=C(c2ccc(Cl)cc2)C1 (stereo not drawn) [Example 217, 4-(4-{[2-(4-chlorophenyl)-4,4-dimethylcyclohex-1-en-1-yl]methyl}piperazin-1-yl)-N-{[3-nitro-4-({[4-(oxetan-3-yl)morpholin-2-yl]methyl}amino)phenyl]sulfonyl}-2-(1H-pyrrolo[2,3-b]pyridin-5-yloxy)benzamide] | 1.55 |
| CC1(C)CC(c2ccc(Cl)cc2)=C(CN2CCN(c3ccc(C(=O)NS(=O)(=O)c4ccc(N[C@H]5CC[C@H](N6CCOCC6)CC5)c(S(=O)(=O)C(F)(F)F)c4)c(Oc4cnc5[nH]ccc5c4)c3)CC2)CO1 [Example 44, Trans-4-(4-{[4-(4-chlorophenyl)-6,6-dimethyl-5,6-dihydro-2H-pyran-3-yl]methyl}piperazin-1-yl)-N-({4-[(4-morpholin-4-ylcyclohexyl)amino]-3-[(trifluoromethyl)sulfonyl]phenyl}sulfonyl)-2-(1H-pyrrolo[2,3-b]pyridin-5-yloxy)benzamide] | 53.1 |
| CC1(C)CCC(CN2CCN(c3ccc(C(=O)NS(=O)(=O)c4ccc(NCC5CCOCC5)c([N+](=O)[O-])c4)c(Oc4ccc5[nH]ccc5c4)c3)CC2)=C(c2ccc(Cl)cc2)C1 [Example 18, 4-(4-{[2-(4-chlorophenyl)-4,4-dimethylcyclohex-1-en-1-yl]methyl}piperazin-1-yl)-2-(1H-indol-5-yloxy)-N-({3-nitro-4-[(tetrahydro-2H-pyran-4-ylmethyl)amino]phenyl}sulfonyl)benzamide] | 86 |
| CC1(C)CCC(CN2CCN(c3ccc(C(=O)NS(=O)(=O)c4ccc(NC5CCC6(CC5)OCCO6)c([N+](=O)[O-])c4)c(Oc4cnc5[nH]ccc5c4)c3)CC2)=C(c2ccc(Cl)cc2)C1 [Example 178, 4-(4-{[2-(4-chlorophenyl)-4,4-dimethylcyclohex-1-en-1-yl]methyl}piperazin-1-yl)-N-{[4-(1,4-dioxaspiro[4.5]dec-8-ylamino)-3-nitrophenyl]sulfonyl}-2-(1H-pyrrolo[2,3-b]pyridin-5-yloxy)benzamide] | 202 |
| CC1(C)CCC(CN2CCN(c3ccc(C(=O)NS(=O)(=O)c4ccc(OCC5CCOC(C)(C)C5)c([N+](=O)[O-])c4)c(Oc4cnc5[nH]ccc5c4)c3)CC2)=C(c2ccc(Cl)cc2)C1 (stereo not drawn) [Example 51, 4-(4-{[2-(4-chlorophenyl)-4,4-dimethylcyclohex-1-en-1-yl]methyl}piperazin-1-yl)-N-({4-[(2,2-dimethyltetrahydro-2H-pyran-4-yl)methoxy]-3-nitrophenyl}sulfonyl)-2-(1H-pyrrolo[2,3-b]pyridin-5-yloxy)benzamide] | 23.1 |
| COCCN1CCOC(CNc2ccc(S(=O)(=O)NC(=O)c3ccc(N4CCN(CC5=C(c6ccc(Cl)cc6)CC(C)(C)CC5)CC4)cc3Oc3cnc4[nH]ccc4c3)cc2[N+](=O)[O-])C1 (stereo not drawn) [Example 135, 4-(4-{[2-(4-chlorophenyl)-4,4-dimethylcyclohex-1-en-1-yl]methyl}piperazin-1-yl)-N-{[4-({[4-(2-methoxyethyl)morpholin-2-yl]methyl}amino)-3-nitrophenyl]sulfonyl}-2-(1H-pyrrolo[2,3-b]pyridin-5-yloxy)benzamide] | 2.37 |
| COCCOCCS(=O)(=O)c1ccc(S(=O)(=O)NC(=O)c2ccc(N3CCN(CC4=C(c5ccc(Cl)cc5)CC(C)(C)CC4)CC3)cc2Oc2cnc3[nH]ccc3c2)cc1Cl [Example 58, N-[(3-chloro-4-{[2-(2-methoxyethoxy)ethyl]sulfonyl}phenyl)sulfonyl]-4-(4-{[2-(4-chlorophenyl)-4,4-dimethylcyclohex-1-en-1-yl]methyl}piperazin-1-yl)-2-(1H-pyrrolo[2,3-b]pyridin-5-yloxy)benzamide] | > 5000 |
| CN1CC(Nc2ccc(S(=O)(=O)NC(=O)c3ccc(N4CCN(CC5=C(c6ccc(Cl)cc6)CC(C)(C)CC5)CC4)cc3Oc3cnc4[nH]ccc4c3)cc2[N+](=O)[O-])CC1=O (stereo not drawn) [Example 202, 4-(4-{[2-(4-chlorophenyl)-4,4-dimethylcyclohex-1-en-1-yl]methyl}piperazin-1-yl)-N-({4-[(1-methyl-5-oxopyrrolidin-3-yl)amino]-3-nitrophenyl}sulfonyl)-2-(1H-pyrrolo[2,3-b]pyridin-5-yloxy)benzamide] | 43.8 |
| CC1(C)CCC(CN2CCN(c3ccc(C(=O)NS(=O)(=O)c4cnc(OCC5(F)CCN(CC#N)CC5)c(Cl)c4)c(Oc4cnc5[nH]ccc5c4)c3)CC2)=C(c2ccc(Cl)cc2)C1 [Example 257, N-[(5-chloro-6-{[1-(cyanomethyl)-4-fluoropiperidin-4-yl]methoxy}pyridin-3-yl)sulfonyl]-4-(4-{[2-(4-chlorophenyl)-4,4-dimethylcyclohex-1-en-1-yl]methyl}piperazin-1-yl)-2-(1H-pyrrolo[2,3-b]pyridin-5-yloxy)benzamide] | 26 |
| CC1(C)CCC(CN2CCN(c3ccc(C(=O)NS(=O)(=O)c4ccc(NC5CCN(C6CCOC6)CC5)c([N+](=O)[O-])c4)c(Oc4cnc5[nH]ccc5c4)c3)CC2)=C(c2ccc(Cl)cc2)C1 (stereo not drawn) [Example 143, 4-(4-{[2-(4-chlorophenyl)-4,4-dimethylcyclohex-1-en-1-yl]methyl}piperazin-1-yl)-N-({3-nitro-4-[(1-tetrahydrofuran-3-ylpiperidin-4-yl)amino]phenyl}sulfonyl)-2-(1H-pyrrolo[2,3-b]pyridin-5-yloxy)benzamide] | 19.1 |
| CC1(C)CCC(CN2CCN(c3ccc(C(=O)NS(=O)(=O)c4ccc(NCc5cccc(O)c5)c([N+](=O)[O-])c4)c(Oc4cnc5[nH]ccc5c4)c3)CC2)=C(c2ccc(Cl)cc2)C1 [Example 186, 4-(4-{[2-(4-chlorophenyl)-4,4-dimethylcyclohex-1-en-1-yl]methyl}piperazin-1-yl)-N-({4-[(3-hydroxybenzyl)amino]-3-nitrophenyl}sulfonyl)-2-(1H-pyrrolo[2,3-b]pyridin-5-yloxy)benzamide] | 64.4 |
| CO[C@H]1CC[C@H](COc2ncc(S(=O)(=O)NC(=O)c3ccc(N4CCN(CC5=C(c6ccc(Cl)cc6)CC(C)(C)CC5)CC4)cc3Oc3cnc4[nH]ccc4c3)cc2Cl)CC1 [Example 210, Trans-N-({5-chloro-6-[(4-methoxycyclohexyl)methoxy]pyridin-3-yl}sulfonyl)-4-(4-{[2-(4-chlorophenyl)-4,4-dimethylcyclohex-1-en-1-yl]methyl}piperazin-1-yl)-2-(1H-pyrrolo[2,3-b]pyridin-5-yloxy)benzamide] | 60.2 |
| CC1(C)CCC(CN2CCN(c3ccc(C(=O)NS(=O)(=O)c4ccc(OCC5CCC6(CC5)COC6)c([N+](=O)[O-])c4)c(Oc4cnc5[nH]ccc5c4)c3)CC2)=C(c2ccc(Cl)cc2)C1 [Example 351, 4-(4-{[2-(4-chlorophenyl)-4,4-dimethylcyclohex-1-en-1-yl]methyl}piperazin-1-yl)-N-{[3-nitro-4-(2-oxaspiro[3.5]non-7-ylmethoxy)phenyl]sulfonyl}-2-(1H-pyrrolo[2,3-b]pyridin-5-yloxy)benzamide] | 2.06 |
| CC1(C)CCC(CN2CCN(c3ccc(C(=O)NS(=O)(=O)c4ccc(OCC5(F)CCN(C6CCOC6)CC5)c([N+](=O)[O-])c4)c(Oc4cnc5[nH]ccc5c4)c3)CC2)=C(c2ccc(Cl)cc2)C1 (stereo not drawn) [Example 193, 4-(4-{[2-(4-chlorophenyl)-4,4-dimethylcyclohex-1-en-1-yl]methyl}piperazin-1-yl)-N-({4-[(4-fluoro-1-tetrahydrofuran-3-ylpiperidin-4-yl)methoxy]-3-nitrophenyl}sulfonyl)-2-(1H-pyrrolo[2,3-b]pyridin-5-yloxy)benzamide] | 0.76 |
| CC1(C)CCC(CN2CCN(c3ccc(C(=O)NS(=O)(=O)c4ccc(N[C@H]5CC[C@H](N6CCN(C7CCOCC7)CC6)CC5)c([N+](=O)[O-])c4)c(Oc4cnc5[nH]ccc5c4)c3)CC2)=C(c2ccc(Cl)cc2)C1 [Example 128, Trans-4-(4-{[2-(4-chlorophenyl)-4,4-dimethylcyclohex-1-en-1-yl]methyl}piperazin-1-yl)-N-[(3-nitro-4-{[4-(4-tetrahydro-2H-pyran-4-ylpiperazin-1-yl)cyclohexyl]amino}phenyl)sulfonyl]-2-(1H-pyrrolo[2,3-b]pyridin-5-yloxy)benzamide] | 5.89 |
| CC1(C)CCC(CN2CCN(c3ccc(C(=O)NS(=O)(=O)c4ccc(NN5CCN(C6CCOCC6)CC5)c([N+](=O)[O-])c4)c(Oc4cnc5[nH]ccc5c4)c3)CC2)=C(c2ccc(Cl)cc2)C1 [Example 237, 4-(4-{[2-(4-chlorophenyl)-4,4-dimethylcyclohex-1-en-1-yl]methyl}piperazin-1-yl)-N-[(3-nitro-4-{[4-(tetrahydro-2H-pyran-4-yl)piperazin-1-yl]amino}phenyl)sulfonyl]-2-(1H-pyrrolo[2,3-b]pyridin-5-yloxy)benzamide] | 53.2 |
| CC1(C)CCC(CN2CCN(c3ccc(C(=O)NS(=O)(=O)c4ccc(NCCCN5CCOCC5)c([N+](=O)[O-])c4)c(Oc4cnc5[nH]ccc5c4)c3)CC2)=C(c2ccc(Cl)cc2)C1 [Example 55, 4-(4-{[2-(4-chlorophenyl)-4,4-dimethylcyclohex-1-en-1-yl]methyl}piperazin-1-yl)-N-({4-[(3-morpholin-4-ylpropyl)amino]-3-nitrophenyl}sulfonyl)-2-(1H-pyrrolo[2,3-b]pyridin-5-yloxy)benzamide] | 13.2 |

Same assay, conditions: Homo sapiens, RS4-11, Table 4, selected compounds in U.S. Pat. Application No. 12/631404; read-out: RS4; 11 EC50

| SMILES | EC50 [nM] |
| --- | --- |
| CC1(C)CCC(CN2CCN(c3ccc(C(=O)NS(=O)(=O)c4ccc(N[C@H]5CC[C@H](N6CCOCC6)CC5)c([N+](=O)[O-])c4)c(Oc4ccc5[nH]ccc5c4)c3)CC2)=C(c2ccc(Cl)cc2)C1 [Example 19, Trans-4-(4-{[2-(4-chlorophenyl)-4,4-dimethylcyclohex-1-en-1-yl]methyl}piperazin-1-yl)-2-(1H-indol-5-yloxy)-N-({4-[(4-morpholin-4-ylcyclohexyl)amino]-3-nitrophenyl}sulfonyl)benzamide] | 465 |

Same assay, conditions: Homo sapiens, RS4-11, Table 5, direct comparison Z=N with corresponding analogs Z=C; read-out: RS4; 11 EC50

| SMILES | EC50 [nM] |
| --- | --- |
| CC1(C)CCC(CN2CCN(c3ccc(C(=O)NS(=O)(=O)c4ccc(N[C@H]5CC[C@H](N6CCOCC6)CC5)c([N+](=O)[O-])c4)c(Oc4ccc5[nH]ccc5c4)c3)CC2)=C(c2ccc(Cl)cc2)C1 [Example 19, Trans-4-(4-{[2-(4-chlorophenyl)-4,4-dimethylcyclohex-1-en-1-yl]methyl}piperazin-1-yl)-2-(1H-indol-5-yloxy)-N-({4-[(4-morpholin-4-ylcyclohexyl)amino]-3-nitrophenyl}sulfonyl)benzamide] | 465 |
| CC1(C)CCC(CN2CCN(c3ccc(C(=O)NS(=O)(=O)c4ccc(NCC5CCOCC5)c([N+](=O)[O-])c4)c(Oc4ccc5[nH]ccc5c4)c3)CC2)=C(c2ccc(Cl)cc2)C1 [Example 18, 4-(4-{[2-(4-chlorophenyl)-4,4-dimethylcyclohex-1-en-1-yl]methyl}piperazin-1-yl)-2-(1H-indol-5-yloxy)-N-({3-nitro-4-[(tetrahydro-2H-pyran-4-ylmethyl)amino]phenyl}sulfonyl)benzamide] | 86 |
